From ChEMBL document CHEMBL5233262, “Anti-inflammatory activity of naturally occuring diarylheptanoids - A review” (Bioorg Med Chem, 2021)

Key:
Assay type in all cases: functional
Conditions in all cases: dose 3-100 µM, time 26 hrs
RAW264.7 [1] = assay: Antiinflammatory activity in mouse RAW264.7 cells assessed as inhibition of LPS-induced NO production at 3 to 100 uM preincubated for 2 hrs followed by LPS stimulation and measured after 24 hrs by Griess method
RAW264.7 [2] = assay: Antiinflammatory activity in mouse RAW264.7 cells assessed as inhibition of LPS-induced TNFalpha production at 3 to 100 uM preincubated for 2 hrs followed by LPS stimulation and measured after 24 hrs by ELISA
RAW264.7 [3] = assay: Antiinflammatory activity in mouse RAW264.7 cells assessed as inhibition of LPS-induced IL-6 production at 3 to 100 uM preincubated for 2 hrs followed by LPS stimulation and measured after 24 hrs by ELISA

Q: Which results are given for COc1cc2ccc1Oc1cc(ccc1O)CC[C@H](O[C@@H]1O[C@H](CO)[C@@H](O)[C@H](O)[C@H]1O)CC(=O)CC2?
A: inhibition (INH) (RAW264.7 [1]): 32.7%; inhibition (INH) (RAW264.7 [2]): 44.1%; inhibition (INH) (RAW264.7 [3]): 29.2%
